We go through 5 molecules from ChEMBL document CHEMBL1134162 (Bioorg Med Chem Lett, 2001).

Assay [1] has as its target T1, Mu-type opioid receptor (Cavia porcellus, UniProt P97266). The assay is described as follows: In vitro inhibitory activity was determined against Opioid receptor mu 1 in guinea pig ileum.
For assay [2], the target named is T2, Delta-type opioid receptor (Mus musculus, UniProt P32300). The assay is described as follows: In vitro inhibitory activity was determined against Opioid receptor delta 1 in mouse vas deferens.
T2 sequence (P32300 whole entry): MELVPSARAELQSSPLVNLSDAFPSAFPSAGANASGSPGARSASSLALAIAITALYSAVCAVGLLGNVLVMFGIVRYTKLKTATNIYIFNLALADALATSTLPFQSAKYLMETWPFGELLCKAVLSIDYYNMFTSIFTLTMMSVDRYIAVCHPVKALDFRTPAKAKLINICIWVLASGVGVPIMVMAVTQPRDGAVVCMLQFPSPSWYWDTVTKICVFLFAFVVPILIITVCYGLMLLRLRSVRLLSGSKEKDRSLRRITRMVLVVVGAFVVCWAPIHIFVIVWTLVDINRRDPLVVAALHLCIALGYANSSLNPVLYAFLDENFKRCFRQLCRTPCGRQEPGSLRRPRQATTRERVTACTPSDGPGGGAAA
Assay [3] has as its target Mu-type opioid receptor (Rattus norvegicus) (UniProt P33535).
Description: Selectivity ratio was determined by taking the ratio of Opioid receptor mu 1 to that of Opioid receptor delta 1
Assay [4] deals with Mu-type opioid receptor (Rattus norvegicus, UniProt P33535). Description: Binding affinity was determined towards Opioid receptor mu 1 in rat brain synaptosomes using [3H]DAMGO as radioligand.
Sequence of Mu-type opioid receptor (Rattus norvegicus, UniProt P33535) (P33535 whole entry): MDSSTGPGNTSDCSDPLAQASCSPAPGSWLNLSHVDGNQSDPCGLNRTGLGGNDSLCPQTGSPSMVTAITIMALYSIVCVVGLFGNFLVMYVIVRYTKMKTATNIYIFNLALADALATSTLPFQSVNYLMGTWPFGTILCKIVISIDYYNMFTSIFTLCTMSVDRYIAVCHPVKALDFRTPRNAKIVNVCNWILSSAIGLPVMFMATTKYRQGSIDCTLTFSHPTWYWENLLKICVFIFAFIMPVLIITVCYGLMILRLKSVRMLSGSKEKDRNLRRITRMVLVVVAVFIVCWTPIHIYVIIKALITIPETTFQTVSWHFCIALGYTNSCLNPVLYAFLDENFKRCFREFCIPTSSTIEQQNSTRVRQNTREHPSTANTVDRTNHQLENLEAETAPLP
For assay [5], the target named is T1, Mu-type opioid receptor. Description: Inhibitory activity against Opioid receptor mu 1 of (endomorphin 2) in guinea pig ileum was determined.
Assay [6] has as its target T2, Delta-type opioid receptor. Description: Inhibitory activity against Opioid receptor delta 1 of (endomorphin 2) in mouse vas deferens was determined.
The target in assay [7] is T2, Delta-type opioid receptor. Description: Inhibitory activity against delta receptor of (endomorphin 2) in mouse vas deferens was determined.

T1 sequence (P97266 whole entry): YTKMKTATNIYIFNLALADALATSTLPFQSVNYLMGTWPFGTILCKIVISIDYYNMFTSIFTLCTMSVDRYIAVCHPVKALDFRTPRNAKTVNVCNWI
Sequence of Mu-type opioid receptor (Rattus norvegicus) (P33535 whole entry): as the sequence (P33535 whole entry) above

As to `Cc1cccc(C)c1C[C@H](NC(=O)CNC(=O)CNC(=O)[C@@H](N)Cc1ccc(O)cc1)C(=O)N[C@@H](CC(C)C)C(=O)O`, the concentration for half-maximal inhibition (IC50) (against Mu-type opioid receptor [1]; in assay [2]) was more than 10 nM in each case. In assay [3], this molecule registered an SR of 0.28.
With `Cc1cc(O)cc(C)c1C[C@H](N)C(=O)NCC(=O)NCC(=O)N[C@@H](Cc1ccccc1)C(=O)N[C@@H](CC(C)C)C(=O)O`, the IC50 (as a rule, the midpoint of a concentration-inhibition curve) on Mu-type opioid receptor [1] came to 0.55 nM; in assay [2] it was 0.17 nM. In addition, on Mu-type opioid receptor [4], the Ki (commonly the equilibrium dissociation constant of an inhibitor or competing ligand from its target) amounted to 0.0068 nM. For the same molecule, the SR in assay [3] stood at 0.22.
Consider `Cc1cccc(C)c1C[C@@H](NC(=O)CNC(=O)CNC(=O)[C@@H](N)Cc1ccc(O)cc1)C(=O)N[C@@H](CC(C)C)C(=O)O`, for which the IC50 on Mu-type opioid receptor [1] was 808 nM; in assay [2] it was 624 nM. On Mu-type opioid receptor [4], this molecule yielded an inhibitory constant (Ki) of 1.25 nM. Further, the SR in assay [3] amounted to 0.07.
`Cc1cc(O)cc(C)c1C[C@H](N)C(=O)NCC(=O)NCC(=O)N[C@H](Cc1c(C)cccc1C)C(=O)N[C@@H](CC(C)C)C(=O)O`: the half-inhibitory concentration (IC50) came out at 2 nM at Mu-type opioid receptor [1] and 1.45 nM in assay [2]. Besides, on Mu-type opioid receptor [4], the affinity, expressed as Ki, was 0.03 nM. The SR in assay [3] stood at 0.19.
`Cc1cccc(C)c1C[C@H](NC(=O)CNC(=O)CNC(=O)[C@@H](N)Cc1c(C)cc(O)cc1C)C(=O)N[C@@H](CC(C)C)C(=O)O`: the Kb on Mu-type opioid receptor [5] was 126 nM; in assay [7] it was 2570 nM. The 50% inhibitory concentration (IC50) (on Mu-type opioid receptor [1]; in assay [6]) was more than 10 nM in each case. Further, the inhibition constant (Ki) on Mu-type opioid receptor [4] worked out at 5.61 nM. In addition, the SR in assay [3] was 0.14.
